Data on 1 compound can be found in patent US12233164B2, “Drug delivery composition and method of fabrication” (DIGNITY HEALTH, priority 2017, dated 2025).

The conditions of data set [1]: solubilized with hydroxy-propyl-β-cyclodextrin and/or mannitol; IP or SQ injection; cited from earlier work.
Data set [2] has as its system orthotopic GL261-LucNeo tumors. Briefly: Treatment efficacy in mice bearing orthotopic GL261 tumors (bioluminescence tumor growth, survival). In kind it is in vivo, C57BL/6 albino mice. As to conditions: free drug study: 10 mg/kg IP, days 11, 12, 18, 19, n=5. The procedure:
Tumor induction Orthotopic GL261-LucNeo tumors were induced in C57BL/6 albino mice (Harlan Laboratories, Indianass, IN, USA) as previously reported. Briefly, mice were anesthetized with an intraperitoneal injection of ketamine/xylazine (100/10 mg/kg) and mounted in a stereotaxic frame (Kopf Instruments, Tujunga, CA, USA) on top of an infrared heating pad to maintain animal temperature. The animal's head was shaved and sterilized with three alternating passes each of betadine and ethanol. A 1 cm incision was made over midline, and a burr hole was drilled 2 mm lateral, 0.1 mm posterior of bregma. A hamiltion syringe (29 gauge needle) containing 75 k GL261-LucNeo cells in 2 μl DMEM was inserted into the hole to a depth of 2.8 mm and the cells were injected over 2 min. The needle was left in place for 1 min to reduce backflow before the wound was closed with staples. All animals received a subcutaneous (SQ) injection of Buprenorphine SR prior to surgery, and ibuprofen was provided in their water ad lib for 1 week for pain. […]
Tumor treatment Quisinostat-loaded nanoparticles were tested in vivo in mice bearing orthotopic GL261 tumors. […] Treatment efficacy was measured by tumor growth and median survival. Mice were monitored daily and euthanized at the sign of symptoms (lack of grooming, abnormal gait, hunched posture, etc.) or greater than 15% weight loss. […]

Data set [3] is described as follows: Controlled release of quisinostat from dialysis cassette into PBS. The conditions noted are these: 37° C., 3.5k MWCO dialysis cassette. In kind it is physicochemical. As for the experimental part:
Controlled Release Quisinostat release from nanoparticles was determined using a protocol adapted from Wang et al.. Nanoparticles were diluted to 20 mg/ml in PBS (pH 7) and 400 μl was transferred to a 3.5 k MWCO Slide-A-Lyzer Dialysis cassette (Thermo Fisher Scientific, Waltham, MA USA) in triplicate. Each cassette was immersed in 2 l PBS (pH 7, replaced at each time point) at 37° C. with gentle stirring (100 rpm). At each time point, 30 μl nanoparticles was removed from the cassette and dissolved in 150 μl DMSO. 60 μl dissolved nanoparticles was added in triplicate to a clear, flat bottom, 96-well plate, and the amount of drug remaining was quantified by absorbance as described above. A free quisinostat control at the equivalent concentration was included to measure quisinostat movement across the membrane using the same protocol.

Data set [4] deals with GL261 murine glioma cells. The data set is described as follows: In vitro nanoparticle efficacy, CellTiter-Glo cell viability. The conditions noted are these: Mus musculus, 72 hours, read-out: IC50, growth inhibition. In kind it is cell-based. The procedure:
Cell Culture GL261-LucNeo cells were generated by retroviral transduction of parent GL261 cells. The LucNeo construct (obtained from AndrewKung laboratory, Dana-Farber Cancer Institute) is described in Rubin et al.. Cells were maintained under normal adherent culture conditions supplemented with G-418 as a selection pressure. Cells were grown in T25 flasks in DMEM containing glucose, L-glutamine and 10% FBS at 37° C. and 5% CO2. 0.25% trypsin-EDTA was applied to collect cells, and a Cellometer mini (Nexcelom Bioscience, Lawrence, MA USA) was used to count cells prior to all in vitro and in vivo experiments.
In vitro Nanoparticle Efficacy GL261 cells were seeded in 96-well flat, white walled, clear bottom plates at a density of 3 k cells/well in 100 μl media and allowed to attach for 4 hours prior to adding treatments. Each plate was treated with 10 μl/well of 19 serial dilutions (1:2) ranging from 10 to 0 μM in PBS of either free drug or nanoparticles. After 72 hours, cell viability was assessed using CellTiter-Glo, and an IC50 value was calculated using GraphPad Prism (San Diego, CA USA) by a nonlinear fit of the log (inhibitor) vs. response function.
(ATP-based viability assays read luminescence as a measure of living cells.)

The term IC50 denotes the concentration at which inhibition is half-maximal. Regarding `Cn1cc(CNCC2CCN(c3ncc(C(=O)NO)cn3)CC2)c2ccccc21` [quisinostat, Quisinostat], the maximum tolerated dose in data set [1] was 35-70 mg/kg/week. Besides, the tumor doubling time in data set [2] (saline 2.4 days) is recorded as 2.4 days. The compound also came in with a median survival in data set [2] (saline 22 days) of 19 days. Besides, in data set [3], the “time to complete quisinostat release” value is recorded as ≤ 4 h. In addition, the half-maximal inhibitory concentration (IC50) in data set [4] was 0.024 µM.
